System: primary cortical neurons
Test: Increase of cGMP in primary cortical neurons
Format: cell-based
Conditions: 0.1 μM test substance; rat primary cortical neurons; IBMX 100 μM; 20 min at 37° C.; cGMP by EIA
Method: Increase of cGMP in Primary Cortical Neurons
Rat embryos (embryonic day 17-19) are decapitated, and the cerebrum is removed and incubated with 5 ml of papain solution and 250 μl of DNAse (papain kit from Cell-System) at 37° C. for 30 min, homogenized using a Pasteur pipette and centrifuged at 1200 rpm for 5 min. The supernatant is removed, the cell pellet resuspended (in 2.7 ml of EBSS [Earl's balanced salt solution], 300 μl of ovomucoid/albumin (conc.) solution, 150 μl of DNAse; papain kit from Cell-System), layered over 5 ml of ovomucoid/albumin solution and centrifuged at 700 rpm for 6 min. The supernatant is removed, the cells are resuspended in cultivation medium (Gibco neurobasal medium, B27 Supplement 50×1 ml/100 ml, 2 mM L-glutamine), counted (approx. 150 000 cells/well) and plated out on poly-D-lysine-coated 96-well plates (Costar) with 200 μl/well. After 6-7 days at 37° C. (5% CO2), the neurons are freed of culture medium and washed once with assay buffer (154 mM NaCl, 5.6 mM KCl, 2.3 mM CaCl22H2O, 1 mM MgCl2, 5.6 mM glucose, 8.6 mM HEPES (4-(2-hydroxyethyl)piperazine-1-ethanesulfonic acid), pH=7.4). […] After incubation at 37° C. for 20 min, the assay buffer is replaced by 200 μl/well of lysis buffer (cGMP EIA RPN 226 from Amersham Pharmacia Biotech), and the cGMP content of the lystates is determined using an EIA assay kit.

In the case of `Nc1nc(-c2nn(Cc3ccccc3F)c3ccccc23)ncc1N1C2CCCC1COC2` [Example 1, 2-[1-(2-Fluorobenzyl)-1H-indazol-3-yl]-5-(3-oxa-9-azabicyclo[3.3.1]non-9-yl)-4pyrimidinylamine], the “increase in cGMP” value is reported as “statistically significant increase in cGMP”.

— US7427617B2, “Morpoline-bridged indazole derivatives” (Bayer Healthcare AG, priority 2002, dated 2008)
